Measurements taken from patent US11129801B2 (SigmaThera SAS, priority 2016, dated 2021).

B1: BDNF: Brain-derived neurotrophic factor, used as a reference compound (protein, UniProt P23560 19-247, looked up)
Neurotrophic factor BDNF …: APMKEANIRGQGGLAYPGVRTHGTLESVNGPKAGSRGLTSLADTFEHVIEELLDEDQKVRPNEENNKDADLYTSRVMLSSQVPLEPPLLFLLEEYKNYLDAANMSMRVRRHSDPARRGELSVCDSISEWVTAADKKTAVDMSGGTVTVLEKVPVSKGQLKQYFYETKCNPMGYTKEGCRGIDKRHWNSQCRTTQSYVRALTMDSKKRIGWRFIRIDTSCVCTLTIKRGR

Tested on: rat motor neurons (Islet 1/2 positive neurons)
Assay: Survival of primary motor neurons injured by glutamate
Assay type: cell-based
Settings: glutamate 40 μM, 20 min
Procedure: Rat motor neurons were cultured as described (Camu et al. (1994) Journal of the neurological sciences 124 Suppl: 73-74). Briefly, pregnant female rats of 14 days gestation were killed by cervical dislocation (Rats Wistar; Janvier Lab) and the foetuses were removed from the uterus. The spinal cord were removed and placed in ice-cold PBS. Tissue segments were spun down, incubated in 0.025% (w/v) of trypsin-EDTA (Panbiotech, Ref: P10-023100) for 10 min at 37° C. Fragments were transferred in 1 mL of complete Leibovitz medium containing BSA (0.4%, Dustcher, Ref: P06-1391100) and DNasel grade II (0.1 mg/ml, Panbiotech, ref: P60-37780100). Cells were then dissociated by several rounds of trituration, centrifuged for 5 min at 470 g on a 4% BSA cushion and re-suspended in 2 mL of supplemented L15 medium. Motor neurons were counted in a Neubauer cytometer using the trypan blue exclusion test. Cells were cultured at a density of 1.5×10^4 cells/well of a 96 wells plate on astrocyte monolayer in Neurobasal (Invitrogen, ref: 21103) containing 1% of B27 (Invitrogen, ref: 17504), 2 mM L-Glutamine (Panbiotech, ref: P04-80100), 1% of PS solution, […] 2-mercaptoethanol (Invitrogen, ref: 31350-010), 2% Horse serum (Invitrogen, Ref: 16050-122), 1 ng/ml of Brain-derived neurotrophic factor (BDNF, PanBiotech, Ref: CB-1115002) and 1 ng/ml of Glial derived neurotrophic factor (GDNF, Dustcher, Ref: CB-1116001) at 37° C. in a humidified air (95%)/CO2 (5%) atmosphere.
Briefly, after 10 days of culture, medium was removed and 100 μL of fresh medium (supplemented Neurobasal without neurotrophic factor) without or with test compound was added 1 h before glutamate intoxication. Then, Glutamate at 40 μM in absence or presence of test compound will be added in the culture medium and incubated 20 min. The cells were rinsed with incubation solution (3 wash-outs) and let in the neurobasal medium containing compounds or control medium for 24 h.
[…]_Control medium stimulated with vehicle medium […]
The data were expressed as mean±s.e.m (of 6 data per condition, 1 culture). […]

| Molecule | protective effect on motor neuron survival (0.1 μM, 0.3 μM, 1 μM, 3 μM and 10 μM) | Islet 1/2 positive neurons (10 μM) | Islet 1/2 positive neurons (50 ng/mL) |
| --- | --- | --- | --- |
| CCC(C/C=C/c1ccccc1)(c1ccccc1)N(C)CC1CC1 (single isomer, unassigned; (+)) [igmesine, (+)-(E)-N-(cyclopropylmethyl)-N-methyl-3,6-diphenylhex-5-en-3-amine] | significant protective effect | 126 % of the control | – |
| B1 | – | – | 96.43 % of the control |
